Patent publication US20240374764A1, “COMBINATION RADIOTHERAPY” (Telix Pharmaceuticals (Innovations) Pty Ltd., priority 2021, published 2024)

Tests used:
[1] = biological target: DNA-PK (Homo sapiens, UniProt P78527); settings: as demonstrated by crystallographic and enzyme kinetics studies; cited from earlier work
[2] = system: SK-RC-52 xenografts; settings: mouse, in vivo
Procedure: Female BALB/c nude mice with established SK-RC-52 xenografts (approx. 100 mm^3) were used for this study. Mice were split into one of the following 3 groups: • Vehicle control (oral) n=4; • ^177Lu-anti-CAIX antibody only (DOTA-GmAb, as described herein; 162 μCi/6 MBq) n=4; • 50 mg/kg M3814 DNA-PKi orally dosed and ^177Lu-anti-CAIX antibody (162 μCi/6 MBq) n=4.
Animals were treated as follows: • Day −14: injection of 60 female mice with RK-RC-52 metastatic RCC cells in matrigel; • Day 0: ^177Lu-anti-CAIX antibody i.v. administration, single dose once only • Day 1-7: daily oral dosing of vehicle/M3814 @ 50 mg/kg.
SPECT/MRI imaging was conducted at days 3 and 6 to determine biodistribution.

[3] = system: SK-RC-52 xenografts; test: In vivo efficacy in SK-RC-52 metastatic renal cell carcinoma xenograft model; design: species or system Female BALB/c nude mice; settings: number of mice (% of group, n=4) at conclusion of study; 177Lu antibody 6 MBq single i.v. dose day 0; M3814 50 mg/kg oral daily where combined
From the text: Tumour growth curves were monitored in mice for up to 6 months or ethical limits.

[4] = previous clinical studies, cited from earlier work

Compound: COc1ccc([C@@H](O)c2cc(-c3ncnc4cc(N5CCOCC5)ccc34)c(F)cc2Cl)nn1 [M3814, (S)-[2-chloro-4-fluoro-5-(7-morpholin-4-yl-quinazolin-4-yl)-phenyl]-(6-methoxypyridazin-3-yl)-methanol]
- inhibition of DNA-PK (mode, potency, selectivity) [1]: potent and selective ATP-competitive inhibitor of DNA-PK

Compound: ^177Lu-anti-CAIX antibody: 177Lu-labelled DOTA conjugate of the anti-CAIX antibody GmAb (girentuximab)
- SPECT imaging: delivery of radiation to the tumour [2]: specifically delivers cytotoxic radiation to the tumour over a prolonged period
- Complete Remission [3]: 1 (25%)
- Progressive Disease [3]: 3 (75%)

Compound: ^177Lu-girentuximab: chimeric monoclonal antibody girentuximab (cG250, TLX250) specific for CAIX, radiolabelled with lutetium-177 via a DOTA linker
- MTD ([4]; single agent): 2405 MBq/m^2
- tolerability of follow on dosing at 75% of the previous dose [4]: well tolerated
